molecular target: DNA-PK (Homo sapiens, UniProt P78527); experiment: DNA-PK inhibition assay (radiometric 33P-ATP kinase assay); assay type: biochemical; settings: 100 μM ATP; competitive tight-binding fit
Method: Compounds were screened for their ability to inhibit DNA-PK kinase using a standard radiometric assay. Briefly, in this kinase assay the transfer of the terminal ^33P-phosphate in ^33P-ATP to a peptide substrate is interrogated. The assay was carried out in 384-well plates to a final volume of 50 μL per well containing approximately 6 nM DNA-PK, 50 mM HEPES (pH 7.5), 10 mM MgCl2, 25 mM NaCl, 0.01% BSA, 1 mM DTT, 10 μg/mL sheared double-stranded DNA (obtained from Sigma), 0.8 mg/mL DNA-PK peptide ([…] obtained from American Peptide), and 100 μM ATP. Accordingly, compounds of the invention were dissolved in DMSO to make 10 mM initial stock solutions. Serial dilutions in DMSO were then made to obtain the final solutions for the assay. A 0.75 μL aliquot of DMSO or inhibitor in DMSO was added to each well, followed by the addition of ATP substrate solution containing ^33P-ATP (obtained from Perkin Elmer). The reaction was started by the addition of DNA-PK, peptide and ds-DNA. After 45 min. the reaction was quenched with 25 μL of 5% phosphoric acid. The reaction mixture was transferred to MultiScreen HTS 384-well PH plates (obtained from Millipore), allowed to bind for one hour, and washed three times with 1% phosphoric acid. Following the addition of 50 μL of Ultima Gold™ high efficiency scintillant (obtained from Perkin Elmer), the samples were counted in a Packard TopCount NXT Microplate Scintillation and Luminescence Counter (Packard BioScience). The Ki values were calculated using Microsoft Excel Solver macros to fit the data to the kinetic model for competitive tight-binding inhibition.

| SMILES | Ki |
| --- | --- |
| CNC(=O)c1c(F)cnc2c([C@H](C)CNc3cc(-c4cnc(N(C)C5CCN(C)CC5)nc4)ncn3)cccc12 [Compound 1058] | < 30 nM |
| CNC(=O)c1c(F)cnc2c([C@H](C)CNc3cc(-c4ccc(C5(O)COC5)nc4)ncn3)cccc12 [Compound 1068] | < 30 nM |
| CNC(=O)c1c(F)cnc2c([C@H](C)CNc3cc(-c4ccc(N(C)C5CCN(CC(F)(F)F)CC5)nc4)ncn3)cccc12 [Compound 1090] | < 30 nM |
| COc1ccccc1[C@H](C)CNc1cc(-c2cnc3[nH]ncc3c2)ncn1 [Compound 150] | < 30 nM |
| CNC(=O)c1ccnc2c([C@H](C)CNc3cc(-c4ccc(CC5CCN(C(C)=O)CC5)nc4)ncn3)ccc(F)c12 [Compound 1018] | < 30 nM |
| CNC(=O)c1c(F)cnc2c([C@H](C)CNc3cc(-c4cnc(OC)nc4)ncn3)cccc12 [Compound 1035] | < 30 nM |
| CNC(=O)c1c(F)cnc2c([C@H](C)CNc3cc(-c4cnc(CC5CCN(CC(F)F)CC5)nc4)ncn3)cccc12 [Compound 1046] | < 30 nM |
| CNC(=O)c1ccnc2c([C@H](C)CNc3cc(-c4cnc(OC5CCN(C)CC5)nc4)ncn3)ccc(F)c12 [Compound 1073] | < 30 nM |
| CNC(=O)c1ccnc2c([C@H](C)CNc3cc(-c4cnc(OC(C)(C)C)nc4)ncn3)ccc(F)c12 [Compound 998] | < 30 nM |
| CNC(=O)c1ccnc2c([C@H](C)CNc3cc(-c4ccc(CC5CCN(C)CC5)nc4)ncn3)ccc(F)c12 [Compound 992] | < 30 nM |
| CNC(=O)c1ccnc2c([C@H](C)CNc3cc(-c4ccc(CC5CCN(C)CC5)nc4)ncn3)cccc12 [Compound 989] | < 30 nM |
| CNC(=O)c1ccnc2c([C@H](C)CNc3cc(-c4ccc(N(C)C5CCN(C(C)=O)CC5)nc4)ncn3)cccc12 [Compound 1088] | < 30 nM |
| Cc1ccc(-c2cc(NC[C@@H](C)c3cccc4c3ncc3[nH][nH]c(=O)c34)ncn2)cn1 [Compound 993] | < 30 nM |
| CNC(=O)c1ccnc2c([C@H](C)CNc3cc(-c4ccc(C5(O)COC5)nc4)ncn3)cccc12 [Compound 1067] | < 30 nM |
| CNC(=O)c1ccnc2c([C@H](C)CNc3cc(-c4cnc(NC5CCN(C(C)=O)CC5)nc4)ncn3)ccc(F)c12 [Compound 1055] | < 30 nM |
| CNC(=O)c1ccnc2c([C@H](C)CNc3cc(-c4cnc(CC5CCN(CC(F)(F)F)CC5)nc4)ncn3)cccc12 [Compound 1047] | < 30 nM |
| CCN(CC)c1cc(-c2cc(NC[C@@H](C)c3cccc4c(C(=O)NC)ccnc34)ncn2)ccn1 [Compound 892] | < 30 nM |
| CNC(=O)c1ccnc2c([C@H](C)CNc3cc(-c4cnc(NCC(=O)N(C)C)nc4)ncn3)cccc12 [Compound 1077] | < 30 nM |
| CNC(=O)c1c(F)cnc2c([C@H](C)CNc3cc(-c4ccc(NC5CCN(C(C)=O)CC5)nc4)ncn3)cccc12 [Compound 1065] | < 30 nM |
| CNC(=O)c1ncnc2c([C@H](C)CNc3cc(-c4ccc(C#N)cc4)ncn3)cccc12 [Compound 1010] | < 30 nM |
| CNC(=O)c1c(F)cnc2c([C@H](C)CNc3cc(-c4ccc(CC5CCN(CC(F)F)CC5)nc4)ncn3)cccc12 [Compound 1043] | < 30 nM |
| CNC(=O)c1c(F)cnc2c([C@H](C)CNc3cc(-c4cnc(N(C)C5CCN(C(C)=O)CC5)nc4)ncn3)cccc12 [Compound 1059] | < 30 nM |
| CNC(=O)c1c(F)cnc2c([C@H](C)CNc3cc(-c4cnc(N(C)C5CCN(CC(F)(F)F)CC5)nc4)ncn3)cccc12 [Compound 1082] | < 30 nM |
| [2H]c1nc(C)nc([2H])c1-c1cc(NC[C@@H](C)c2cccc3c(C(N)=O)ccnc23)ncn1 [Compound 1027] | < 30 nM |

Continued, values first:

| Ki | SMILES |
| --- | --- |
| < 30 nM | CNC(=O)c1ccnc2c([C@H](C)CNc3cc(-c4ccc(C5(O)COC5)nc4)ncn3)ccc(F)c12 [Compound 1069] |
| < 30 nM | CNC(=O)c1c(F)cnc2c([C@H](C)CNc3cc(-c4ccc(CC5CCN(CC(F)(F)F)CC5)nc4)ncn3)cccc12 [Compound 1021] |
| < 30 nM | CNC(=O)c1c(F)cnc2c([C@H](C)CNc3cc(-c4ccc(CC5CCN(C(C)=O)CC5)nc4)ncn3)cccc12 [Compound 1008] |
| < 30 nM | CNC(=O)c1c(F)cnc2c([C@H](C)CNc3cc(-c4ccc(NC5CCN(CC(F)(F)F)CC5)nc4)ncn3)cccc12 [Compound 1086] |
| < 30 nM | CNC(=O)c1ccnc2c([C@H](C)CNc3cc(-c4ccc(NC5CCN(CC(F)(F)F)CC5)nc4)ncn3)cccc12 [Compound 1085] |
| < 30 nM | CNC(=O)c1c(F)cnc2c([C@H](C)CNc3cc(-c4cnc(CC5CCN(C(C)=O)CC5)nc4)ncn3)cccc12 [Compound 1044] |
| < 30 nM | CNC(=O)CNc1ncc(-c2cc(NC[C@@H](C)c3cccc4c(C(=O)NC)c(F)cnc34)ncn2)cn1 [Compound 1075] |
| < 30 nM | CNC(=O)c1ccnc2c([C@H](C)CNc3cc(-c4ccnc(C(C)OC)c4)ncn3)cccc12 (single isomer, unassigned) [Compound 1039] |
| < 30 nM | CNC(=O)c1ccnc2c([C@H](C)CNc3cc(-c4cnc(N5CCN(CC(F)(F)F)CC5)nc4)ncn3)cccc12 [Compound 781] |
| < 30 nM | CNC(=O)c1ccnc2c([C@H](C)CNc3cc(-c4ccc(CC5CCN(CC(F)F)CC5)nc4)ncn3)cccc12 [Compound 1019] |
| < 30 nM | Cc1ccc(-c2cc(NC[C@@H](C)c3cccc4c3ncc3c4c(=O)[nH]n3C)ncn2)cn1 [Compound 995] |
| < 30 nM | CNC(=O)c1ccnc2c([C@H](C)CNc3cc(-c4cnc(OC(C)(C)C)nc4)ncn3)cccc12 [Compound 996] |
| < 30 nM | CNC(=O)c1ccnc2c([C@H](C)CNc3cc(-c4ccc(CC5CCN(CC(F)F)CC5)nc4)ncn3)ccc(F)c12 [Compound 1020] |
| < 30 nM | CNC(=O)c1ccnc2c([C@H](C)CNc3cc(-c4cnc(N(C)C5CCN(CC(F)F)CC5)nc4)ncn3)cccc12 [Compound 1060] |
| < 30 nM | CNC(=O)c1c(F)cnc2c([C@H](C)CNc3cc(-c4cnc5c(c4)COC5(C)C)ncn3)cccc12 [Compound 987] |
| < 30 nM | CNC(=O)c1ccnc2c([C@H](C)CNc3cc(-c4cnc(CC5CCN(CC(F)F)CC5)nc4)ncn3)cccc12 [Compound 1045] |
| < 30 nM | COc1ccc(CCNc2cc(-c3ccc4ncccc4c3)ncn2)c(OC)c1 [Compound 28] |
| < 30 nM | CNC(=O)c1c(F)cnc2c([C@H](C)CNc3cc(-c4cnc(NC5CCN(CC(F)(F)F)CC5)nc4)ncn3)cccc12 [Compound 1036] |

| Ki | SMILES |
| --- | --- |
| < 30 nM | CNC(=O)CNc1ncc(-c2cc(NC[C@@H](C)c3cccc4c(C(=O)NC)ccnc34)ncn2)cn1 [Compound 1074] |
| < 30 nM | CNC(=O)c1ccnc2c([C@H](C)CNc3cc(-c4cnc5c(c4)COC5(C)C)ncn3)cccc12 [Compound 986] |
| < 30 nM | CNC(=O)c1ccnc2c([C@H](C)CNc3cc(-c4cnc(NC5CCN(CC(F)(F)F)CC5)nc4)ncn3)cccc12 [Compound 1080] |
| < 30 nM | CNC(=O)c1c(F)cnc2c([C@H](C)CNc3cc(-c4cnc(C(C)C)nc4)ncn3)cccc12 [Compound 859] |
| < 30 nM | CNC(=O)c1c(F)cnc2c([C@H](C)CNc3cc(-c4cnc(COC(C)C)nc4)ncn3)cccc12 [Compound 1015] |
| < 30 nM | CNC(=O)c1ccnc2c([C@H](C)CNc3cc(-c4cnc(NCCNC(C)=O)nc4)ncn3)ccc(F)c12 [Compound 1053] |
| < 30 nM | CNC(=O)c1ccnc2c([C@H](C)CNc3cc(-c4cnc(NC5CCN(C)CC5)nc4)ncn3)cccc12 [Compound 1078] |
| < 30 nM | CNC(=O)c1ccnc2c([C@H](C)CNc3cc(-c4cnc(OCC(F)(F)F)nc4)ncn3)cccc12 [Compound 769] |
| < 30 nM | CNC(=O)c1c(F)cnc2c([C@H](C)CNc3cc(-c4cnc(NC5CCN(CC(F)F)CC5)nc4)ncn3)cccc12 [Compound 1037] |
| < 30 nM | CNC(=O)c1ccnc2c([C@H](C)CNc3cc(-c4ccc(CC5CCN(CC(F)(F)F)CC5)nc4)ncn3)cccc12 [Compound 1023] |
| < 30 nM | CNC(=O)c1c(F)cnc2c([C@H](C)CNc3cc(-c4cnc(CC5CCN(CC(F)(F)F)CC5)nc4)ncn3)cccc12 [Compound 1048] |
| < 30 nM | CNC(=O)c1c(F)cnc2c([C@H](C)CNc3cc(-c4cnc(OC5CCN(C)CC5)nc4)ncn3)cccc12 [Compound 1050] |
| < 30 nM | CNC(=O)c1ccnc2c([C@H](C)CNc3cc(-c4ccc(NC5CCN(C(C)=O)CC5)nc4)ncn3)cccc12 [Compound 1064] |
| < 30 nM | CNC(=O)c1c(F)cnc2c([C@H](C)CNc3cc(-c4cnc(NCCNC(C)=O)nc4)ncn3)cccc12 [Compound 1052] |
| < 30 nM | CNC(=O)c1ccnc2c([C@H](C)CNc3cc(-c4cnc(NCC(F)(F)F)nc4)ncn3)cccc12 [Compound 1066] |
| < 30 nM | CNC(=O)c1ncnc2c([C@H](C)CNc3cc(-c4cnc(OC)nc4)ncn3)cccc12 [Compound 1009] |
| < 30 nM | CNC(=O)c1cc(C(F)(F)F)nc2c([C@H](C)CNc3cc(-c4ccc(C)nc4)ncn3)cccc12 [Compound 985] |
| < 30 nM | CNC(=O)c1ccnc2c([C@H](C)CNc3cc(-c4cnc(NC5CCN(CC(F)F)CC5)nc4)ncn3)cccc12 [Compound 1034] |

Reference: US10442791B2, “DNA-PK inhibitors” (Vertex Pharmaceuticals Incorporated, priority 2012, dated 2019)
